# Laboratory results taken from US12121522B2, “Methods of treating cancer with an mTOR inhibitor” (Revolution Medicines, Inc., priority 2022, dated 2024).
# Several values for one entry are separate records, joined by “and”; a condition that tells them apart may be missing. Equal values may be shown once.
# Columns and labels:
# ctDNA (mean VAF) = experiment: ctDNA molecular response (Guardant Health algorithm); assay type: in vivo, human
# Protocol: The mean±SEM of fractional change in mean VAF from C1D1 to C3D1 was determined by the Guardant Health Molecular Response Algorithm. […] Change in ctDNA is presented as mean±SEM of % change in mean VAF from C1D1 to C3D1. […] The results presented in FIGS. 8 and 9, supported by preclinical data, indicate that the dose range of 6 mg to 12 mg represents a “steep” dose-exposure-response relationship.
# [1] = test system: HCC-1954 PIK3CA^H1047R breast cancer CDX; experiment: HCC-1954 breast cancer xenograft; assay type: in vivo, mouse; conditions: two values
# Protocol: (§1) The antitumor activity of RMC-5552 as a single agent against tumors predicted to be dependent on the mTOR pathway and/or bearing specific PI3K/mTOR pathway-activating mutations (i.e., PIK3CA^mut, phosphatase and tensin homolog [PTEN^LOF], or co-mutation of both and tuberous sclerosis complex [TSC^LOF]) was evaluated in selected CDX and/or PDX models
# (§2) Table 1. RMC-5552 was administered IP once weekly at 1, 3, 10, and 30 mg/kg. In the breast cancer MCF7 PIK3CA^[…] model, a higher dose of 50 mg/kg once weekly and an alternate dose regimen of 30 mg/kg every 10 days were also evaluated.
# HN009 HNSCC PDX = experiment: HN009 HNSCC patient-derived xenograft; assay type: in vivo, mouse
# Excerpt: FIGS. 3A-3B show Antitumor Activity of RMC-5552 in the HN009 Patient-Derived Xenograft Model of Human HNSCC Following Once-Weekly Administration. Abbreviations: ANOVA=analysis of variance; IP=intraperitoneal; QW=once weekly. […] Each animal represented as a separate bar. The number of tumor regressions out of total mice in that group is shown (tumor regression defined as >10% reduction in tumor volume from starting volume) in each group.
# as §1, §2
# [2] = Clinical safety (TEAEs, TRAEs, SAEs, DLTs), study RMC-5552-001
# Excerpt: RMC-5552 is currently being evaluated as a monotherapy in a FIH, dose-escalation, Phase 1/1b study (RMC-5552-001) in adult subjects with advanced relapsed/refractory solid tumors (see Example 3 for additional study protocol details.) The purpose of this study is to evaluate safety, tolerability, preliminary efficacy, PK, and pharmacodynamics of RMC-5552 monotherapy. The primary objective is to characterize the safety and tolerability of RMC-5552 monotherapy and to define the MTD and the Recommended Phase 2 Dose (RP2DS) and schedule for RMC-5552 monotherapy in subjects with relapsed/refractory solid tumors.
# Adverse events (AEs) were based on the Medical Dictionary for Regulatory Activities (MedDRA) preferred terms and included the grouped preferred term of stomatitis/mucositis using mucosal inflammation, oral pain, and stomatitis. […] Of note, the grouped term of stomatitis/mucositis comprised events of (based on MedDRA PT) mucosal inflammation, oral pain, and stomatitis.
# In the Dose-Escalation Phase, assessment of safety and tolerability will be the primary endpoints and will be directly measured by the incidence of dose-limiting toxicities (DLTs), treatment-emergent adverse events (TEAEs), and serious adverse events (SAEs). The starting dose of RMC-5552 will be 1.6 mg once weekly (QW) via intravenous (IV) infusion. The first cycle of treatment (i.e., first 21 days after treatment initiation) constitutes the DLT evaluation period.
# A DLT is defined as a toxicity that is considered at least possibly related to study intervention, occurs within the first 21 days of treatment initiation (i.e., during Cycle 1), and meets at least 1 of the following criteria (with severity graded according to Common Terminology Criteria for Adverse Events [CTCAE] v5): […]
# [3] = 10 mg QW (2-hour infusion) 21-Day cycle (N = 5)
smiles,measurement,setting,value
CO[C@H]1C[C@@H]2CC[C@@H](C)[C@@](O)(O2)C(=O)C(=O)N2CCCC[C@H]2C(=O)O[C@H]([C@H](C)C[C@@H]2CC[C@@H](OC(=O)NCCOCCOCCOCCOCCOCCOCCOCCOCCC(=O)N3CCc4cc(Cn5nc(-c6ccc7oc(N)nc7c6)c6c(N)ncnc65)ccc4C3)[C@H](OC)C2)C[C@@H](O)[C@H](C)/C=C(\C)[C@@H](O)[C@@H](OC)C(=O)[C@H](C)C[C@H](C)/C=C/C=C/C=C/1C [RMC-5552],decrease in VAF,"ctDNA (mean VAF); 67F NSCLC STK11, TSC2, KRAS L19F, 8 mg QW",reduction in lesion; 31%
same,MR (molecular response),"ctDNA (mean VAF); endometrial PIK3CA, PTEN, TSC2, 8 mg QW",SD; MR 64%
same,subjects with molecular response,ctDNA (mean VAF); of 6 subjects with SD as best response and a pathogenic mTOR pathway variant,3
same,molecular response,ctDNA (mean VAF); one subject on 12 mg initial dose,effective molecular complete response
same,MR (molecular response),"ctDNA (mean VAF); uterine CaSarc TSC1 LOF, 10 mg single dose, 6 mg QW",91%
same,TGI,[1]; 1 mg/kg IP QW,79% and 81%
same,TGI,[1]; 3 mg/kg IP QW,94% and 96%
same,TGI,[1]; 10 mg/kg IP QW,95% and 92%
same,TGI,HN009 HNSCC PDX; 3 mg/kg IP QW,91%
same,tumor regression,HN009 HNSCC PDX; 10 mg/kg IP QW,17% regression
same,"Treatment-emergent SAE Wound infection, number (%) of subjects",[2]; 1.6 mg QW 21-Day cycle (N = 2),0 subjects
same,"Treatment-emergent SAE Wound infection, number (%) of subjects",[2]; 3 mg QW 21-Day cycle (N = 3),0 subjects
same,"Treatment-emergent SAE Wound infection, number (%) of subjects",[2]; 6 mg QW 21-Day cycle (N = 12),0 subjects
same,"Treatment-emergent SAE Wound infection, number (%) of subjects",[2]; 8 mg QW 21-Day cycle (N = 15),1 subjects
same,"Treatment-emergent SAE Urinary tract infection, number (%) of subjects",[2]; [3],0 subjects
same,"Treatment-emergent SAE Wound infection, number (%) of subjects",[2]; [3],0 subjects
same,"Treatment-emergent SAE Wound infection, number (%) of subjects",[2]; 12 mg QW 21-Day cycle (N = 2),0 subjects
same,"Treatment-emergent SAE Urinary tract infection, number (%) of subjects",[2]; Overall (N = 39),1 subjects
same,"Treatment-emergent SAE Wound infection, number (%) of subjects",[2]; Overall (N = 39),1 subjects
same,DLT rate,"[2]; human, in vivo",(3.0%)
same,Grade ≥3 TEAE: anemia,"[2]; human, in vivo",15.4%
same,Grade ≥3 TEAE: dysphagia,"[2]; human, in vivo",5.1%
same,Grade ≥3 TEAE: fatigue,"[2]; human, in vivo",5.1%
same,Grade ≥3 TEAE: rash (grouped term),"[2]; human, in vivo",5.1%
same,Grade ≥3 TEAE: stomatitis/mucositis,"[2]; human, in vivo",10.3%
same,Grade ≥3 TEAE: urinary tract infection,"[2]; human, in vivo",5.1%
same,Number of subjects with any SAE (treatment-emergent),"[2]; human, in vivo",14 subjects
same,SAEs assessed as treatment-related by investigators,"[2]; human, in vivo",No SAEs were assessed as treatment-related
same,TEAE any grade: abdominal pain,"[2]; human, in vivo",20.5%
same,TEAE any grade: anemia,"[2]; human, in vivo",25.6%
same,TEAE any grade: decreased appetite,"[2]; human, in vivo",43.6%
same,TEAE any grade: diarrhea,"[2]; human, in vivo",23.10%
same,TEAE any grade: dyspnea,"[2]; human, in vivo",28.20%
same,TEAE any grade: fatigue,"[2]; human, in vivo",61.5%
same,TEAE any grade: headache,"[2]; human, in vivo",20.5%
same,TEAE any grade: nausea,"[2]; human, in vivo",41.0%
same,TEAE any grade: rash (grouped term),"[2]; human, in vivo",28.20%
same,TEAE any grade: vomiting,"[2]; human, in vivo",30.80%
same,TRAE: decreased appetite,"[2]; human, in vivo",25%
same,TRAE: diarrhea,"[2]; human, in vivo",25%
same,TRAE: fatigue,"[2]; human, in vivo",25%
same,TRAE: mucositis/stomatitis,"[2]; human, in vivo",35%
same,TRAE: nausea,"[2]; human, in vivo",25%
same,"Treatment-emergent SAE Acute kidney injury, number (%) of subjects","[2]; human, in vivo",1 subjects
same,"Treatment-emergent SAE Anaemia, number (%) of subjects","[2]; human, in vivo",1 subjects
same,"Treatment-emergent SAE Anemia along with occlusion, number (%) of subjects","[2]; human, in vivo",1 subjects
same,"Treatment-emergent SAE Atrial fibrillation, number (%) of subjects","[2]; human, in vivo",1 subjects
same,"Treatment-emergent SAE Dehydration, number (%) of subjects","[2]; human, in vivo",1 subjects
same,"Treatment-emergent SAE Dyspnea, number (%) of subjects","[2]; human, in vivo",1 subjects
same,"Treatment-emergent SAE Embolism, number (%) of subjects","[2]; human, in vivo",1 subjects
same,"Treatment-emergent SAE Face Oedema, number (%) of subjects","[2]; human, in vivo",1 subjects
same,"Treatment-emergent SAE Failure to Thrive, number (%) of subjects","[2]; human, in vivo",1 subjects
same,"Treatment-emergent SAE Fatigue, number (%) of subjects","[2]; human, in vivo",1 subjects
same,"Treatment-emergent SAE Hypotension, number (%) of subjects","[2]; human, in vivo",1 subjects
same,"Treatment-emergent SAE Large intestinal obstruction, number (%) of subjects","[2]; human, in vivo",1 subjects
same,"Treatment-emergent SAE Lower gastrointestinal hemorrhage, number (%) of subjects","[2]; human, in vivo",1 subjects
same,"Treatment-emergent SAE Oedema peripheral, number (%) of subjects","[2]; human, in vivo",1 subjects
same,"Treatment-emergent SAE Pain in extremity, number (%) of subjects","[2]; human, in vivo",1 subjects
same,"Treatment-emergent SAE Pleural effusion, number (%) of subjects","[2]; human, in vivo",1 subjects
same,"Treatment-emergent SAE Pneumonia aspiration, number (%) of subjects","[2]; human, in vivo",1 subjects
same,"Treatment-emergent SAE Pneumonia, number (%) of subjects","[2]; human, in vivo",1 subjects
same,"Treatment-emergent SAE Pneumothorax, number (%) of subjects","[2]; human, in vivo",1 subjects
same,"Treatment-emergent SAE Rash maculopapular, number (%) of subjects","[2]; human, in vivo",1 subjects
same,"Treatment-emergent SAE Rectourethral fistula, number (%) of subjects","[2]; human, in vivo",1 subjects
same,"Treatment-emergent SAE Small intestinal obstruction, number (%) of subjects","[2]; human, in vivo",1 subjects
same,"Treatment-emergent SAE Small intestinal perforation, number (%) of subjects","[2]; human, in vivo",1 subjects
same,"Treatment-emergent SAE Stomatitis/mucositis, number (%) of subjects","[2]; human, in vivo",1 subjects
same,"Treatment-emergent SAE Vascular occlusion, number (%) of subjects","[2]; human, in vivo",1 subjects
same,dose-limiting toxicities,"[2]; human, in vivo",no dose-limiting toxicities
same,drug-related adverse event: decreased appetite,"[2]; human, in vivo",32%
same,drug-related adverse event: fatigue,"[2]; human, in vivo",41%
same,drug-related adverse event: nausea,"[2]; human, in vivo",36%
same,drug-related adverse event: stomatitis/mucositis,"[2]; human, in vivo",41%
same,drug-related adverse event: vomiting,"[2]; human, in vivo",23%
same,event of interest: edema peripheral,"[2]; human, in vivo",10.3%
same,event of interest: hyperglycemia,"[2]; human, in vivo",7.7%
same,event of interest: rash maculo-papular,"[2]; human, in vivo",17.9%
same,median duration of resolved stomatitis/mucositis events,"[2]; human, in vivo",12.0 days
same,median time to first onset of stomatitis/mucositis,"[2]; human, in vivo",12.5 days
same,n/N (DLT rate),"[2]; human, in vivo",1/33
same,related Grade 4 or 5 adverse events,"[2]; human, in vivo",No related Grade 4 or 5 adverse events
same,"treatment-emergent hyperglycemia, patients","[2]; human, in vivo",6.8%
